Converted amounts (≈) assume the structure as drawn. Where a SMILES comes first, the peptide text is derived from it.

Conditions in one data set: not given
As usually defined, the logP is the decadic logarithm of the partition coefficient of the neutral form, usually between octanol and water. Read a high logP as a more lipophilic compound. Turning to `CCn1cc(C(=O)O)c(=O)c2cc(F)c(N3CCNC(C)C3)c(F)c21` (configuration not stated), the logP was -0.3.
The same measure, in the same setting: next, `CC[C@H](C)[C@H](NC(=O)[C@@H](NC(=O)[C@@H](NC(C)=O)C(C)C)C(C)C)C(N)=O` (Ac-Val-Val-Ile-NH2): 0.49; `CC(=O)OCCOCn1cnc2cnc(N)nc21`: -0.61.
The same measure, in the same setting: next, `CCC(=O)n1ncc2c(O)ncnc21`: 0.3; `Cc1ncc([N+](=O)[O-])n1C`: 0.31; `Cc1cc(Cl)ccc1OCC(=O)O`: 3.25.
On the same count and under the same terms, next, `C=CCOc1ccccc1OCC(CNC(C)C)OC(=O)C(C)C` (configuration not stated): 3.77; `C=C(C)C(N)=O`: -1.11; `CCCCN=C=S`: 2.92.
Turning to `CCCCSP(=O)(SCCCC)SCCCC`, the logP worked out at 5.7.
Still for that read-out and setting: next, `C[C@H](CCC(=O)NCC(=O)O)[C@H]1CC[C@H]2[C@@H]3[C@H](O)[C@H](O)[C@@H]4C[C@H](O)CC[C@]4(C)[C@H]3CC[C@]12C`: 1.9.
Broadly, the solubility is the concentration that dissolves in the medium under given conditions. A higher solubility goes with much dissolved substance. In turn, `CN(C)C1CSSC1` had a solubility of 13.4 mM (≈ 2000 µg/mL).
For the compound `NC(=O)CC[C@H](N)C(=O)O`, the logP is -3.64.
The compound `CCCCCCCCCC(C)=O` gave a logP of 4.09.
Same read-out and setting: under `Clc1ccc(Cl)c(-c2cc(Cl)c(Cl)cc2Cl)c1` stands 5.68.
Same read-out and setting: under `NC(=O)CC[C@H](NS(=O)(=O)c1ccccc1)C(=O)O` stands 0.33.
Still for that read-out and setting: under `OC(Cn1cncn1)(c1ccc(F)cc1)c1ccccc1F` (configuration not stated) stands 2.29.
The compound `N=C(N)NN=Cc1ccc(Cl)cc1` came in with a logP of 0.96.
The compound `COC(=O)C1=C(C)NC(C)=C(C(=O)OCCN2CCN(C(c3ccccc3)c3ccccc3)CC2)C1c1cccc([N+](=O)[O-])c1` (configuration not stated) registered a logP of 5.2.
As to `CCCCNC(=O)n1cc(F)c(=O)[nH]c1=O`, the solubility was 3.58 mM (≈ 820 µg/mL).
Compound `Clc1cc(Cl)cc(O[Si]23OCCN(CCO2)CCO3)c1` gave a logP of 1.22.
Same read-out and setting: next, `CC(=O)Oc1ccc(CC(N)C(=O)O)cc1` (configuration not stated): -1.33; `CC1=CCC(C(C)(C)O)CC1` (configuration not stated): 2.98; `O=C(c1ccccc1)n1ncc2c(=O)[nH]cnc21`: 1.2.
The same measure, in the same setting: next, `CC(C)COC(=O)n1c(-c2cscn2)nc2ccccc21`: 3.46; `Clc1ccc2c(ccc3ccccc32)c1`: 5.16.

The data set is the same for the next values; noted with them: 20 °C.
Turning to `Nc1ccc(Cl)c(Cl)c1`, the solubility turned out to be 0.568 mM (≈ 92 µg/mL).
The same measure, in the same setting: next, `CCOP(=S)(OCC)ON=C(C#N)c1ccccc1Cl`: 0.00511 mM (≈ 1.7 µg/mL).

The same data set, now with this note: 23.0 °C.
Regarding `CC1=CCCC(C)=CCC(C)(C)C=CC1`, the log10 OH rate constant (cm³/molecule/s) was -9.54.
Still for that read-out and setting: under `C=CC(C)(O)CCC=C(C)C` (configuration not stated) stands -9.8.
On the same count and under the same terms, under `CCC(C)(O)CC(C)C` (configuration not stated) stands -10.9.

Staying with this data set, now noted: 24 °C.
As to `CCCCN(CCCC)N=O`, the solubility was found to be 8.03 mM (≈ 1270 µg/mL). This counts as millimolar.

Staying with this data set, now noted: 24.0 °C.
As for `Clc1ccccc1-c1ccccc1Cl`, the log10 OH rate constant (cm³/molecule/s) was -11.7.
The same measure, in the same setting: under `CCOCCC(=O)OCC` stands -10.6.
With `Clc1cc(Cl)cc(-c2ccccc2)c1`, the log10 OH rate constant (cm³/molecule/s) is -11.4.

The same data set, now with this note: 25 °C.
Compound `Clc1cc(Cl)c(Cl)cc1Cl` came in with a solubility of 0.00276 mM (≈ 0.595 µg/mL).
In turn, `CN(C)c1ccc(N=NS(=O)(=O)[O-])cc1.[Na+]` yielded a solubility of 79.6 mM.
On the same count and under the same terms, next, `Clc1ccccc1-c1ccccc1Cl`: 0.00829 mM (≈ 1.85 µg/mL).
On the same count and under the same terms, next, `CCN(N=O)C(N)=O`: 111 mM (≈ 13000 µg/mL).
Same read-out and setting: under `CN(C)c1ccccc1` stands 12 mM (≈ 1450 µg/mL).
In the case of `ClC1=C(Cl)[C@]2(Cl)[C@@H]3[C@@H]4C[C@@H]([C@H]5O[C@@H]45)[C@@H]3[C@@]1(Cl)C2(Cl)Cl` (single isomer, unassigned), the solubility was determined as 0.00058 mM (≈ 0.221 µg/mL).
The same measure, in the same setting: under `Nc1cc(Cl)cc(C(=O)O)c1Cl` stands 3.4 mM (≈ 700 µg/mL); under `COC(CN(C)C(=O)Nc1nnc(C(C)(C)C)s1)OC`, 13.6 mM (≈ 4100 µg/mL); under `Clc1cccc(Cl)c1`, 0.85 mM (≈ 125 µg/mL).
On the same count and under the same terms, next, `C[Si](C)(C)O[Si](C)(C)O[Si](C)(C)C`: 0.000144 mM (≈ 0.034 µg/mL); `O=[N+]([O-])c1cc(Cl)ccc1Cl`: 0.0729 mM (≈ 14 µg/mL).
Compound `c1ccc(OCC2CO2)cc1` (configuration not stated) returned a solubility of 16 mM (≈ 2400 µg/mL). Compared with the last compound, the solubility is about 220-fold higher.
The same measure, in the same setting: under `CN(C)C(=O)Nc1ccc(Cl)c(Cl)c1` stands 0.18 mM (≈ 42 µg/mL); under `Cc1c2ccccc2c(C)c2c1ccc1ccccc12`, 0.000152 mM (≈ 0.039 µg/mL).

The same data set, now with this note: 25.0 °C.
For `CC12CCC(CC1)C(C)(C)O2`, the log10 OH rate constant (cm³/molecule/s) was -11.
Same read-out and setting: next, `CC(C)CCO`: -10.9; `FC(F)(Cl)C(Cl)Cl`: -13.3; `COC(F)(F)C(F)(F)F`: -13.9.
On the same count and under the same terms, under `CC(C)OCCO` stands -10.7.
Same read-out and setting: next, `O=CF`: -14.4.
As for `Oc1cccc2ccccc12`, the log10 OH rate constant (cm³/molecule/s) is -9.26.
Same read-out and setting: under `COC(=O)CCCC(=O)OC` stands -11.5.
Still for that read-out and setting: next, `C=CC1(C)CCC(O)O1` (configuration not stated): -10.1.

Staying with this data set, now noted: 27.0 °C.
As to `Cc1ccco1`, the log10 OH rate constant (cm³/molecule/s) is -10.2.

The same data set, now with this note: 30 °C.
With `Nc1ccc([N+](=O)[O-])cc1`, the solubility was 5.27 mM (≈ 728 µg/mL).
Still for that read-out and setting: under `BrC(Br)(Br)Br` stands 0.724 mM (≈ 240 µg/mL).
The same measure, in the same setting: under `CN(C)C` stands 15100 mM (≈ 890000 µg/mL).

The record behind these values is the OPERA property sets (Mansouri et al. 2018).
